# Legend:
# MCF-7 cells = test: Breast cancer cell line proliferation inhibitory activity (CellTiter-Glo 2.0); type: cell-based; conditions: Homo sapiens, MCF7, 120 hours
# In short: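 MCF-7 cells exposed to a 12-point, 3-fold dilution series (final 0.00005–10 μM) for 120 h at 37 °C. Viability read by CellTiter-Glo 2.0 luminescence, expressed as percent of vehicle-treated cells. GI50 (nM) derived from the curves.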
# CDK4-cyclinD1 = CDK4-cyclinD1 (Homo sapiens, UniProt P11802); test: CDK4 enzyme inhibitory ability (Reaction Biology); type: biochemical; set-up: purchased Reaction Biology (USA), contract assay; conditions: measured in Reaction Biology (USA)
# CDK4-cyclinD1, sequence (P11802 whole entry): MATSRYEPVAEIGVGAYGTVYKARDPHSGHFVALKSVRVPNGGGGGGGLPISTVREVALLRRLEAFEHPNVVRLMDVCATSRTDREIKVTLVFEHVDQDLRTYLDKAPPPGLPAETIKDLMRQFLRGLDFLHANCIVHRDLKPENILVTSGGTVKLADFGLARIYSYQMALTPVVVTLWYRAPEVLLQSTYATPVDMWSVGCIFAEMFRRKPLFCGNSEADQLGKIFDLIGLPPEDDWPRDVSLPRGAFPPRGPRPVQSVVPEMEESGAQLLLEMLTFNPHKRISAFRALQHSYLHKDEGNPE
# CDK4-cyclinD1, sequence (P24385 whole entry partner): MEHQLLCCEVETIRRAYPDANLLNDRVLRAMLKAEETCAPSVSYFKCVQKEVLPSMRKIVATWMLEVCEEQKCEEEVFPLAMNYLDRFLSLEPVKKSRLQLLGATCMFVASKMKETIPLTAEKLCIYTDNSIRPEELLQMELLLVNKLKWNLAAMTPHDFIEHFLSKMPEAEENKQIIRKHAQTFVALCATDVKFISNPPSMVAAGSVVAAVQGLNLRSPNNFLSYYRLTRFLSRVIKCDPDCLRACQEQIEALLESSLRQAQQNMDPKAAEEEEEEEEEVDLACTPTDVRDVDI
# Method: (§1) In order to evaluate the CDK4 and CDK6 enzyme inhibitory activities of the example compounds according to the present invention, IC5O (nM) was measured for the CDK4 cyclin D1 and CDK6 cyclin D1 enzymes in Reaction Biology (USA), and the results were shown in Table 3 below.
# human GST-HPK1 (1-346) = target: T1, human GST-HPK1 (1-346) (Homo sapiens, UniProt Q92918); test: HPK1 enzyme inhibitory ability (ADP-Glo kinase assay); type: biochemical; conditions: human GST-HPK1 3 ng, ATP 3 uM, 25° C. 2 hours
# T1 construct: purified human GST-HPK1 (1-346, Signalchem) enzyme; purchased Signalchem
# T1 sequence (Q92918 1-346): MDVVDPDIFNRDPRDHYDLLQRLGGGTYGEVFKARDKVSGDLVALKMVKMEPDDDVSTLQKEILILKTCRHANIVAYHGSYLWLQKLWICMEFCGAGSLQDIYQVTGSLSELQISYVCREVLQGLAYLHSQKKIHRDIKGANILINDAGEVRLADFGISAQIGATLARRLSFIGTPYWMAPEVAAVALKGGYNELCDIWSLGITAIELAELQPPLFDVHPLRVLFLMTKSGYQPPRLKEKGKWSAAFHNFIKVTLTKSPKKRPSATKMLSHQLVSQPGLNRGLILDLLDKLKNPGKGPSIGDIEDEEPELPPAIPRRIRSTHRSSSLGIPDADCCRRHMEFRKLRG
# In short: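 Human GST-HPK1(1-346), 3 ng, reacted with 3 uM ATP and specific substrate in 40 mM Tris-HCl pH 7.4, 20 mM MgCl2, 0.5 mg/mL BSA, 50 uM DTT for 2 h at 25° C. ADP-Glo luminescence read; IC50 (nM) relative to untreated solvent control.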
# MV4-11 cells = test: AML cell proliferation inhibitory activity (CellTiter-Glo); type: cell-based; conditions: Homo sapiens, 72 hours
# In short: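 RS4;11 and MV4-11 cells in RPMI-1640 with 10% FBS, seeded 24 h before treatment, then exposed 72 h to 12 three-fold dilutions (0.3 nM–50 μM final). Viability by CellTiter-Glo luminescence relative to solvent control; GI50 from triplicate experiments.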
# CDK6 cyclin D1 = target: T2, CDK6 cyclin D1 (Homo sapiens, UniProt Q00534); test: CDK6 enzyme inhibitory ability (Reaction Biology); type: biochemical; conditions: measured in Reaction Biology (USA)
# T2 construct: purchased Reaction Biology (USA), contract assay
# T2 sequence (Q00534 whole entry): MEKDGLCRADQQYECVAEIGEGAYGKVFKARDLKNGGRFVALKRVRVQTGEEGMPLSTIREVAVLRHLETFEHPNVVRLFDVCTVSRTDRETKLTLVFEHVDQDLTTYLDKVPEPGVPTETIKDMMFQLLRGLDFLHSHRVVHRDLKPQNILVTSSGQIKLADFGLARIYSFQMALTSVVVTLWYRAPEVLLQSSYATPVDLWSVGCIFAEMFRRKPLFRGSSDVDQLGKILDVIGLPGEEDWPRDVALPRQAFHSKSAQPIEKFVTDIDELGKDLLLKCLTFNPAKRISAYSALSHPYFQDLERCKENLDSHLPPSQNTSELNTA
# T2 sequence (P24385 whole entry partner): as the sequence (P24385 whole entry partner) above
# Method: as §1
# human FLT3-ITD enzyme = target: T3, human FLT3-ITD enzyme (Homo sapiens, UniProt P36888); test: FLT3 enzyme inhibitory ability (ADP-Glo kinase assay); type: biochemical; conditions: human FLT3-ITD enzyme 10 ng, ATP 10 μM, 25° C. 1 hour
# T3 sequence (P36888 1-993): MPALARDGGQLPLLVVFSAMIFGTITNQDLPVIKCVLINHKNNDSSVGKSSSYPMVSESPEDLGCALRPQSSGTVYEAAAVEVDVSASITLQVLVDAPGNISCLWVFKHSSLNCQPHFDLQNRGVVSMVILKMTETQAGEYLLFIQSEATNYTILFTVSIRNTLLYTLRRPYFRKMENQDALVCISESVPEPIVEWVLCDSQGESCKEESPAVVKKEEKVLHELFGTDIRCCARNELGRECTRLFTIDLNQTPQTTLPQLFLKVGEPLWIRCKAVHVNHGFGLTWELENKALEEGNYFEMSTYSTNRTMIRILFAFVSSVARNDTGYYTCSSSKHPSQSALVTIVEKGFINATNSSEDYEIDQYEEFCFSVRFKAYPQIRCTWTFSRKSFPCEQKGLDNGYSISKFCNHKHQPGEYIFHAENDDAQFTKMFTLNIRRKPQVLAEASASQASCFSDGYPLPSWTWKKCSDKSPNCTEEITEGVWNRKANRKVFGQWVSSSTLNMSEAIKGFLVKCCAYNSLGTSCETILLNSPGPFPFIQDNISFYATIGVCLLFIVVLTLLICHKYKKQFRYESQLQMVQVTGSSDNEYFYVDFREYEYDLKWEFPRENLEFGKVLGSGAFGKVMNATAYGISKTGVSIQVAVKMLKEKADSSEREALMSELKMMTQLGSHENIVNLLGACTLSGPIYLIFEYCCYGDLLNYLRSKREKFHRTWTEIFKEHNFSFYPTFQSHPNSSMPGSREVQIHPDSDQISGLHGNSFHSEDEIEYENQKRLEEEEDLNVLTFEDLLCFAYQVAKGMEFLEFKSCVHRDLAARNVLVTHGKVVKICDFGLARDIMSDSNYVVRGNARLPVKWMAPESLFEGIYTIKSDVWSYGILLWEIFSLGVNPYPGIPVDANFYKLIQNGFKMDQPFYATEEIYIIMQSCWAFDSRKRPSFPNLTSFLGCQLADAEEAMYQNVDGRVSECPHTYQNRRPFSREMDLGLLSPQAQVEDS
# In short: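 Purified human FLT3-ITD (10 ng) with 10 μM ATP and specific substrate in 40 mM Tris-HCl pH 7.4, 20 mM MgCl2, 0.5 mg/mL BSA, 50 μM DTT, 1 h at 25 °C. ADP formation read by ADP-Glo luminescence; IC50 (nM) versus solvent-treated control.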
GI50 (MCF-7 cells) [nM],IC50 (CDK4-cyclinD1) [nM],IC50 (human GST-HPK1 (1-346)) [nM],GI50 (MV4-11 cells) [nM],IC50 (CDK6 cyclin D1) [nM],IC50 (human FLT3-ITD enzyme) [nM],Compound
> 500,≥ 250,≥ 250,> 500,≥ 250,≥ 250,"CN1CCN(c2ccc(Nc3nc(N4OCC[C@H]4c4ccccc4)c4c(C#N)c[nH]c4n3)cc2)CC1 [Example 118, (S)-2-((4-(4-methylpiperazin-1-yl)phenyl)amino)-4-(3-phenylisoxazolidin-2-yl)-7H-pyrrolo[2,3-d]pyrimidine-5-carbonitrile]"
> 500,≥ 250,≥ 250,> 500,≥ 250,≥ 250,"CN1CCN(c2ccc(Nc3nc(N4OCC[C@H]4c4ccccc4)c4c(Cl)c[nH]c4n3)cc2)CC1 [Example 116, (S)-5-chloro-N-(4-(4-methylpiperazin-1-yl)phenyl)-4-(3-phenylisoxazolidin-2-yl)-7H-pyrrolo[2,3-d]pyrimidin-2-amine]"
> 500,≥ 250,> 500,> 500,≥ 250,≥ 250,"CN1CCN(c2ccc(Nc3nc(N4OCC[C@H]4c4ccccc4)c4c(C(F)(F)F)c[nH]c4n3)cc2)CC1 [Example 123, (S)-N-(4-(4-methylpiperazin-1-yl)phenyl)-4-(3-phenylisoxazolidin-2-yl)-5-(trifluoromethyl)-7H-pyrrolo[2,3-d]pyrimidin-2-amine]"

# From patent publication US20220242870A1, “HETEROCYCLE-FUSED PYRIMIDINE DERIVATIVE AND USE THEREOF” (VORONOI Inc., priority 2019, published 2022)
